# Measurements reported in US20190218226A1, “PRODRUGS OF ANTICANCER AGENTS INDOTECAN AND INDIMITECAN” (Purdue Research Foundation, priority 2016, published 2019).
# Counter-ions that a name gives are not always drawn. Like-named read-outs stand apart in the source and are kept apart here.
# Legend:
# [1] = tested on: HOP-62; assay: NCI60 antiproliferative screen, lung HOP-62; format: cell-based, human; details: HOP-62, 48 h, sulforhodamine B, read-out: Cytotoxicity (GI50) lung HOP-62
# Protocol: (§1) All of the indenoisoquinolines were tested for antiproliferative activity in the National Cancer Institute's 60 cell line screen (NCI60). The cells were incubated with the tested compounds at 100, 10, 1, 0.1, and 0.01 μM concentrations for 48 h before treatment with sulforhodamine B dye. Optical densities were recorded, and their ratios relative to that of the control were plotted as percentage growth against the log 10 of the tested compound concentrations. The concentration that corresponds to 50% growth inhibition (GI50) is calculated by interpolation between the points located above and below the 50% percentage growth. The mean-graph midpoint (MGM) is an estimated average of the GI50 values derived from the NCI collection of 60 human cancer cell lines, where during the MGM calculation, anticancer agents with GI50 values that are outside the testing range of 0.01-100 μM are arbitrarily assigned the values of 0.01 and 100 μM, respectively. […] Also, the GI50 values of many of the substances vs. individual human cancer cell lines are below the lowest concentration used (0.01 μM) in the standard NCI testing protocol. […] For example, the MGM cytotoxicity values of 9, 15-17, and 19 are all very close to each other, but the Top1 inhibitory activities range from +++(+) to 0.
# [2] = tested on: HCT-116; assay: NCI60 antiproliferative screen, colon HCT-116; format: cell-based, human; details: HCT-116, 48 h, sulforhodamine B, read-out: Cytotoxicity (GI50) Colon HCT-116
# Protocol: as §1
# [3] = tested on: SF-539; assay: NCI60 antiproliferative screen, CNS SF-539; format: cell-based, human; details: SF-539, 48 h, sulforhodamine B, read-out: Cytotoxicity (GI50) CNS SF-539
# Protocol: as §1
# [4] = tested on: UACC-62; assay: NCI60 antiproliferative screen, melanoma UACC-62; format: cell-based, human; details: UACC-62, 48 h, sulforhodamine B, read-out: Cytotoxicity (GI50) melanoma UACC-62
# Protocol: as §1
# [5] = tested on: OVCAR-3; assay: NCI60 antiproliferative screen, ovarian OVCAR-3; format: cell-based, human; details: OVCAR-3, 48 h, sulforhodamine B, read-out: Cytotoxicity (GI50) Ovarian OVCAR-3
# Protocol: as §1
# [6] = tested on: SN12C; assay: NCI60 antiproliferative screen, renal SN12C; format: cell-based, human; details: 48 h, sulforhodamine B, read-out: Cytotoxicity (GI50) renal SN12C
# Protocol: as §1
# [7] = tested on: DU-145; assay: NCI60 antiproliferative screen, prostate DU-145; format: cell-based, human; details: DU-145, 48 h, sulforhodamine B, read-out: Cytotoxicity (GI50) prostate DU-145
# Protocol: as §1
# [8] = tested on: MCF-7; assay: NCI60 antiproliferative screen, breast MCF-7; format: cell-based, human; details: MCF-7, 48 h, sulforhodamine B, read-out: Cytotoxicity (GI50) breast MCF-7
# Protocol: as §1
# [9] = tested on: all human cancer cell lines successfully tested (NCI60); assay: NCI60 mean graph midpoint for growth inhibition; format: cell-based
# Protocol: as §1
# [10] = target: T1, Human recombinant Top1 (Homo sapiens, UniProt P11387); assay: Top1-mediated DNA cleavage assay; format: biochemical; design: key to Top1 inhibitory activity (level): 0, no detectable activity; +, weak activity; ++, similar activity to compound 4; +++, greater activity than 4; ++++, equipotent with 1; ++(+) would be between ++ and +++; details: for Top 1 Cleavage: graded relative to 1 μM camptothecin
# T1 construct: made in house
# T1 sequence (P11387 1-765): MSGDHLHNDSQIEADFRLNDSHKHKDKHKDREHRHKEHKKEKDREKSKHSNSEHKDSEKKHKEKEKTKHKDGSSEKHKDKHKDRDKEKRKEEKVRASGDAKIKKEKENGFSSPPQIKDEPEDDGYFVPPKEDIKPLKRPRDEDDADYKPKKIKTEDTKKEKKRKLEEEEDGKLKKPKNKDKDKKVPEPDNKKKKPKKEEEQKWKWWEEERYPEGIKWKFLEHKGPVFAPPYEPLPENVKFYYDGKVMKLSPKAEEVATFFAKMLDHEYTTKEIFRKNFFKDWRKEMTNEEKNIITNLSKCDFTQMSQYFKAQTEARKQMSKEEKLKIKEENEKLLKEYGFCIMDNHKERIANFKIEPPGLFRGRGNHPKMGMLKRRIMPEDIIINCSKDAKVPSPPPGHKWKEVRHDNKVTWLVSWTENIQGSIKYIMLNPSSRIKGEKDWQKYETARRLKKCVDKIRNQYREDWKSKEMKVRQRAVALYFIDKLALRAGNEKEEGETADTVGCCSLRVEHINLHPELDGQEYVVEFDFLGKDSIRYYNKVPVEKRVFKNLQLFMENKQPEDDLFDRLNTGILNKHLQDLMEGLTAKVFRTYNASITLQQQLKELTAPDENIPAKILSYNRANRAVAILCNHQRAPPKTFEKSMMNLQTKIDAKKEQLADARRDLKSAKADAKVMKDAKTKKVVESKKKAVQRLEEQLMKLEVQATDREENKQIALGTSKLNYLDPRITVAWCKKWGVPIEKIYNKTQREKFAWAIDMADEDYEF
# Protocol: All of the new indenoisoquinoline derivatives were tested in Top1-mediated DNA cleavage assays. For this purpose, a ^32P 3′-end labeled 117-bp DNA fragment was incubated with Top1 at four concentrations of a tested compound. The DNA fragments were separated on 20% PAGE denaturing gels. The Top1 inhibitory activities were assigned on the basis of the visual inspection of the number and intensities of the gel bands corresponding to Top1-mediated DNA cleavage fragments and scored relative to the Top1 inhibitory activity of compounds 1 and 4. Results are expressed in semiquantitative fashion: 0, no detectable activity; +, weak activity; ++, similar activity to compound 4; +++, greater activity than 4; ++++, equipotent with 1. Ambiguous scores (e.g., between two values) are designated with parentheses (e.g., ++(+) would be between ++ and +++). […] After conversion of the hydroxyl to a dimethylcarbamate, the observed Top1 inhibitory activity increased from ++(+) for compound 8 to +++ for compound 10. Introduction of an acetyl group at the 0-2 position yielded compound 11, which was also a Top1 poison with activity at the ++ level. Subsequently, several hydrophobic substituents were attached to the 0-2 position.
# Topoisomerase I-Mediated DNA Cleavage Reactions.
# Human recombinant Top1 was purified from baculovirus as previously described (Morrell, A., et al., J. Med. Chem. 2007, 50, 2040-2048). DNA cleavage reactions were prepared as previously reported with the exception of the DNA substrate (Strumberg, D., et al., J. Med. Chem. 1999, 42, 446-457). Briefly, a 117-bp DNA oligonucleotide (Integrated DNA Technologies) encompassing the previously identified Top1 cleavage sites in the 161-bp fragment from pBluescript SK(−) phagemid DNA was employed. This 117-bp oligonucleotide contains a single 5′-cytosine overhang, which was 3′-end-labeled by fill-in reaction with [α-^32P]dGTP in React 2 buffer (50 mM Tris-HCl, pH 8.0, […], 50 mM NaCl) with 0.5 unit of DNA polymerase I (Klenow fragment, New England BioLabs). Unincorporated [^32P]dGTP was removed using mini Quick Spin DNA columns (Roche, Indianapolis, Ind.), and the eluate containing the 3′-end-labeled DNA substrate was collected. Approximately 2 nM radiolabeled DNA substrate was incubated with recombinant Top1 in 20 μL of reaction buffer [10 mM Tris-HCl (pH 7.5), 50 mM KCl, 5 mM MgCl2, 0.1 mM EDTA, and 15 μg/mL BSA] at 25° C. for 20 min in the presence of various concentrations of compounds. The reactions were terminated by adding SDS (0.5% final concentration) followed by the addition of two volumes of loading dye (80% formamide, 10 mM sodium hydroxide, 1 mM sodium EDTA, 0.1% xylene cyanol, and 0.1% bromophenol blue). Aliquots of each reaction mixture were subjected to 20% denaturing PAGE. Gels were dried and visualized by using a phosphoimager and ImageQuant software (Molecular Dynamics). For simplicity, cleavage sites were numbered as previously described in the 161-bp fragment.
# [11] = all human cancer cell lines successfully tested, ± standard error, read-out: MGM (mean graph midpoint for growth inhibition)
SMILES,GI50 ([1]; Homo sapiens) [nM],GI50 ([2]; Homo sapiens) [nM],GI50 ([3]; Homo sapiens) [nM],GI50 ([4]; Homo sapiens) [nM],GI50 ([5]; Homo sapiens) [nM],GI50 ([6]; Homo sapiens) [nM],GI50 ([7]; Homo sapiens) [nM],"GI50 ([8]; Homo sapiens, MCF7) [nM]","mean GI50 across NCI60 cell lines (MGM) [9, 11] [nM]",Top1 inhibitory activity (in words) [10],Top 1 Cleavage [10],melting point,GI50 [1] [nM],GI50 [2] [nM],GI50 [3] [nM],GI50 [4] [nM],GI50 [5] [nM],GI50 [6] [nM],GI50 [7] [nM],GI50 [8] [nM],further results
"COc1cc2c(=O)n(CCCN3CCOCC3)c3c(c2cc1OC(=O)c1cccnc1)C(=O)c1cc2c(cc1-3)OCO2 [Compound 14, 3-Methoxy-6-(3-morpholinopropyl)-5,12-dioxo-6,12-dihydro-5H-[1,3]dioxolo[4′,5′:5,6]indeno[1,2-c]isoquinolin-2-yl Nicotinate]",12,30,< 10,22,295,< 10,13,< 10,158 ± 65,slight improvement in Top1 inhibitory activity,"+++ (+++, between 75 and 95% activity)",277 to 279 °C (dec.),,,,,,,,,"mean GI50 across NCI60 cell lines (MGM) ([9]; Homo sapiens, NCI60, read-out: MGM value): 158 ± 65 nM; Top1 inhibitory activity (level) ([10]; scored relative to compounds 1 and 4): +++"
"COc1cc2c3c(n(CCCN4CCOCC4)c(=O)c2cc1OC(=O)c1cccnc1)-c1cc2c(cc1C3=O)OCO2 [Compound 19, 2-Methoxy-6-(3-morpholinopropyl)-5,12-dioxo-6,12-dihydro-5H-[1,3]dioxolo[4′,5′:5,6]indeno[1,2-c]isoquinolin-3-yl Nicotinate]",< 10,< 10,< 10,< 10,15,< 10,< 10,< 10,35,,"+ (+, between 20 and 50% activities)",274 to 276 °C (dec.),,,,,,,,,
"COc1cc2c3c(n(CCCN4CCOCC4)c(=O)c2cc1OS(=O)(=O)O)-c1cc2c(cc1C3=O)OCO2 [Compound 20, 2-Methoxy-6-(3-morpholinopropyl)-5,12-dioxo-6,12-dihydro-5H-[1,3]dioxolo[4′,5′:5,6]indeno[1,2-c]isoquinolin-3-yl Hydrogen Sulfate]",,,,,,,,,912,,"++ (++, between 50 and 75% activity)",,389,389,263,263,1120,355,417,209,
"COc1cc2c3c(n(CCCN4CCOCC4)c(=O)c2cc1OC(=O)N(C)C)-c1cc2c(cc1C3=O)OCO2 [Compound 15, 2-Methoxy-6-(3-morpholinopropyl)-5,12-dioxo-6,12-dihydro-5H-[1,3]dioxolo[4′,5′:5,6]indeno[1,2-c]isoquinolin-3-yl Dimethylcarbamate]",32,26,21,17,105,25,32,< 10,70 ± 28,,,290 to 292 °C,,,,,,,,,
"COc1cc2c3c(n(CCCN4CCOCC4)c(=O)c2cc1OC(=O)c1ccccc1)-c1cc2c(cc1C3=O)OCO2 [Compound 18, 2-Methoxy-6-(3-morpholinopropyl)-5,12-dioxo-6,12-dihydro-5H-[1,3]dioxolo[4′,5′:5,6]indeno[1,2-c]isoquinolin-3-yl Benzoate]",,,,,,,,,3190 ± 622,weak Top1 poisons,"+ (+, between 20 and 50% activities)",,2140,5890,135,59,30900,195,724,15,GI50's against various cell lines (range in words) ([9]; NCI60): micromolar range; cytotoxicity relative to parent compound (in words) ([9]; NCI60): significantly less cytotoxic than their respective parent compounds
